In patent US20230054749A1, “Herbicide Combinations Comprising Glufosinate and Flumiclorac-pentyl” (BASF SE, priority 2020, published 2023):
Like-named read-outs stand apart in the source and are kept apart here.

System: Abutilon theophrasti
Assay: Greenhouse post-emergence herbicidal activity (plant damage, 0 to 100% scale vs untreated control)
Assay type: in vivo
Conditions: 0.796 g ai/ha, ABUTH, AMS + NIS added, read-out: Solo Flumiclorac (0.796 g ai/ha) % activity
Source text: For the post-emergence treatment, the test plants were first grown to 3.5 to 4.5 inch (8.9 to 11.4 cm) tall, and only then treated. Here, the herbicidal compositions were suspended or emulsified in water as distribution medium and sprayed using finely distributing nozzles.
Flumiclorac (commercial product name: Resource) was used as an emulsifiable concentrate having an active ingredient concentration of 100 g/l. Glufosinate (commercial product name: Liberty) was used as an aqueous soluble liquid of glufosinate ammonium having an active ingredient concentration of 280 g/l. Adjuvants of ammonium sulfate (AMS) and non-ionic surfactant (NIS) were added in all treatments. AMS and NIS were AMS Liquid and Induce at rates of 1680 g/ha and 0.25% (v/v), respectively.
The test period extended over 21 days after treatment (DAT). During this time, the plants were tended and their response to the individual treatments was evaluated.
The evaluation for the damage caused by the chemical compositions was carried out using a scale from 0 to 100%, compared to the untreated control plants. Here, 0 means no damage and 100 means complete destruction of the plants.
E = X + Y - (X.Y/100) • where X = effect in percent using flumiclorac at an application rate a; • Y = effect in percent using glufosinate at application rate b; • E = expected effect (in %) of flumiclorac plus glufosinate at application rates a + b.
The value E corresponds to the effect (plant damage or injury) which is to be expected if the activity of the individual compounds is just additive.

**Q.** What does the source list for `CCCCCOC(=O)COc1cc(N2C(=O)C3=C(CCCC3)C2=O)c(F)cc1Cl` [Flumiclorac, flumiclorac-pentyl]?
**A.** inhibition at 0.796 g/ha (168 h, 7 DAT): 53%; inhibition at 0.796 g/ha (336 h, 14 DAT): 45%; inhibition at 0.796 g/ha (504 h, 21 DAT): 41%
